Experimental data published in patent publication US20140249135A1, “PIM KINASE INHIBITORS AND METHODS OF THEIR USE” (NOVARTIS AG, priority 2007, published 2014).
Where two headings read alike, the source gives them in different places.

Key:
Format in all cases: biochemical
Pim1 kinase = Pim1 kinase (Homo sapiens, UniProt P11309); test: Pim1 ATP depletion assay; conditions: Pim1 ATP depletion assay;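 note: Luciferase-luciferin luminescence readout of residual ATP after PIM1 transfers phosphate to a peptide substrate, 40 µM ATP added, reaction run to roughly half ATP consumption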
Pim2 kinase = Pim2 kinase (Homo sapiens, UniProt Q9P1W9); test: Pim2 ATP depletion assay;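 note: Luciferase-based luminescent readout of ATP remaining after PIM2 phosphorylates a BAD peptide, final 5 nM enzyme, 4 µM ATP, 10 µM peptide, 2.5% DMSO, run to roughly half ATP consumption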
Pim3 kinase = Pim3 kinase (Homo sapiens, UniProt Q86V86); test: Pim3 ATP depletion assay

Chain of Pim1 kinase (P11309 whole entry): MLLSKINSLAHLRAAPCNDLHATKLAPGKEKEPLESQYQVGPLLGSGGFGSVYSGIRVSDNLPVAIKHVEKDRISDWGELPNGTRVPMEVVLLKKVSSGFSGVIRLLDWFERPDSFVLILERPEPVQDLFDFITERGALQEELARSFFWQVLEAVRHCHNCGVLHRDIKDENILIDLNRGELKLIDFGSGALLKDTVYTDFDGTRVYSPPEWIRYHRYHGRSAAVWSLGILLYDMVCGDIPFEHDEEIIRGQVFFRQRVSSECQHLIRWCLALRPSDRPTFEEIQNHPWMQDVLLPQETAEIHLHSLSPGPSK
Chain of Pim2 kinase (Q9P1W9 whole entry): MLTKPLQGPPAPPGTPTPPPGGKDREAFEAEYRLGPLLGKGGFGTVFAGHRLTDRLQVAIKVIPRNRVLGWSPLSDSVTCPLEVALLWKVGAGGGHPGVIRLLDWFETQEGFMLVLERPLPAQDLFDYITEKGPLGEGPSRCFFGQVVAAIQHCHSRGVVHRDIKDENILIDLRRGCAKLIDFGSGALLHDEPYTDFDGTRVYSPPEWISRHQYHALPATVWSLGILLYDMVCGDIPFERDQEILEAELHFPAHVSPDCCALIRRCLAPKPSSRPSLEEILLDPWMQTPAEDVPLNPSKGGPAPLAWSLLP

Row | Structure (SMILES) | IC50 (Pim1 kinase; read-out: PIM1 IC50) | IC50 (Pim2 kinase; read-out: PIM2 IC50) | IC50 (Pim3 kinase; read-out: PIM3 IC50) | IC50 (Pim1 kinase; read-out: IC50 (μM) PIM1) | IC50 (Pim2 kinase; read-out: IC50 (μM) PIM2) | IC50 (Pim3 kinase; read-out: IC50 (μM) PIM3)
1 | COc1cncc(-c2nc(C(=O)Nc3cnccc3N3CCC[C@H](N)C3)c(N)cc2F)n1 [Example 507, 3-Amino-5-fluoro-6-(6-methoxy-pyrazin-2-yl)-pyridine-2-carboxylic acid (3-amino-3,4,5,6-tetrahydro-2H-[1,4′]bipyridinyl-3′-yl)-amide] |  |  |  | < 1 µM | < 1 µM | < 1 µM
2 | COc1ccc(F)c(-c2nc(C(=O)Nc3cnccc3N3CCC[C@H](N)C3)c(N)cc2F)c1 [Example 502, 3-Amino-5-fluoro-6-(2-fluoro-5-methoxy-phenyl)-pyridine-2-carboxylic acid (3-amino-3,4,5,6-tetrahydro-2H-[1,4′]bipyridinyl-3′-yl)-amide] |  |  |  | < 1 µM | < 1 µM | < 1 µM
3 | Nc1cc(-c2ccncc2NC(=O)c2cccc(-c3ccccc3F)n2)nc(C(F)(F)F)n1 [Example 529, 6-(2-Fluoro-phenyl)-pyridine-2-carboxylic acid [4-(6-amino-2-trifluoromethyl-pyrimidin-4-yl)-pyridin-3-yl]-amide] |  |  |  | < 1 µM | < 1 µM | < 1 µM
4 | Nc1ccc(-c2c(F)cccc2F)nc1C(=O)Nc1cnccc1N1CCCCCC1 [Example 169, 3-Amino-6-(2,6-difluoro-phenyl)-pyridine-2-carboxylic acid (4-azepan-1-yl-pyridin-3-yl)-amide] |  |  |  | < 1 µM | < 1 µM | < 1 µM
5 | Nc1cc(-c2ccncc2NC(=O)c2nc(C3CCCCC3)ccc2N)nc(C(F)(F)F)n1 [Example 633, 3-Amino-6-cyclohexyl-pyridine-2-carboxylic acid [4-(6-amino-2-trifluoro-methyl-pyrimidin-4-yl)-pyridin-3-yl]-amide] | < 1 µM | < 1 µM | < 1 µM |  |  | 
6 | CC(C)NC(=O)c1ccc(F)c(-c2ccc(N)c(C(=O)Nc3cnccc3N3C[C@@H](N)C[C@H](OC(=O)c4ccccc4)C3)n2)c1 (stereo in doubt) [Example 294, Benzoic acid 5-amino-3′-{[3-amino-6-(2-fluoro-5-isopropylcarbamoyl-phenyl)-pyridine-2-carbonyl]-amino}-3,4,5,6-tetrahydro-2H-[1,4′]bi-pyridinyl-3-yl ester] |  |  |  | < 1 µM | < 1 µM | < 1 µM
7 | Nc1ccc(-c2ccc(C(F)(F)F)cn2)nc1C(=O)Nc1cnccc1N1CCC[C@H](N)C1 [Example 714, 5-Amino-5′-trifluoromethyl-[2,2′]bipyridinyl-6-carboxylic acid (3-amino-3,4,5,6-tetra-hydro-2H-[1,4′]bipyridinyl-3′-yl)-amide] | < 1 µM | < 1 µM | < 1 µM |  |  | 
8 | Nc1ccc(-c2ccccc2)nc1C(=O)Nc1cnccc1N1C[C@@H](N)C[C@H](O)C1 [Example 582, 3-Amino-6-phenyl-pyridine-2-carboxylic acid (3-amino-5-hydroxy-3,4,5,6-tetrahydro-2H-[1,4′]bipyridinyl-3′-yl)-amide] | < 1 µM | 1 to 10 µM | < 1 µM |  |  | 

Now from value to compound:

Row | IC50 (Pim1 kinase; read-out: PIM1 IC50) | IC50 (Pim2 kinase; read-out: PIM2 IC50) | IC50 (Pim3 kinase; read-out: PIM3 IC50) | IC50 (Pim1 kinase; read-out: IC50 (μM) PIM1) | IC50 (Pim2 kinase; read-out: IC50 (μM) PIM2) | IC50 (Pim3 kinase; read-out: IC50 (μM) PIM3) | Structure (SMILES)
9 | < 1 µM | < 1 µM | < 1 µM |  |  |  | Nc1cc(F)c(-c2ncccc2Cl)nc1C(=O)Nc1cnccc1N1CCC[C@H](N)C1 [Example 743, 5-Amino-3′-chloro-3-fluoro-[2,2′]bipyridinyl-6-carboxylic acid (3-amino-3,4,5,6-tetra-hydro-2H-[1,4′]bipyridinyl-3′-yl)-amide]
10 | < 1 µM | < 1 µM | < 1 µM |  |  |  | CC1(N)CCCN(c2ccncc2NC(=O)c2nc(-c3ccccc3F)ccc2N)C1 (stereo not drawn) [Example 674, 3-Amino-6-(2-fluoro-phenyl)-pyridine-2-carboxylic acid (3-amino-3-methyl-3,4,5,6-tetra-hydro-2H-[1,4′]bipyridinyl-3′-yl)-amide]
11 | < 1 µM | < 1 µM | < 1 µM |  |  |  | CC(C)NC(=O)c1ccc(F)c(-c2ccc(N)c(C(=O)Nc3cnccc3N3CC[C@@H](N)[C@H](O)C3)n2)c1 [Example 668, 3-Amino-6-(2-fluoro-5-isopropylcarbamoyl-phenyl)-pyridine-2-carboxylic acid (4-amino-3-hydroxy-3,4,5,6-tetra-hydro-2H-[1,4′]bipyridinyl-3′-yl)-amide]
12 | < 1 µM | < 1 µM | < 1 µM |  |  |  | Nc1ccc(-c2cccc(F)n2)nc1C(=O)Nc1cnccc1N1CCC[C@H](N)C1 [Example 712, 5-Amino-6′-fluoro-[2,2′]bi-pyridinyl-6-carboxylic acid (3-amino-3,4,5,6-tetrahydro-2H-[1,4′]bipyridinyl-3′-yl)-amide]
13 | < 1 µM | < 1 µM | < 1 µM |  |  |  | Cc1ccc(-c2ccc(N)c(C(=O)Nc3cnccc3N3CCC[C@H](N)C3)n2)nc1 [Example 725, 5-Amino-5′-methyl-[2,2′]bi-pyridinyl-6-carboxylic acid (3-amino-3,4,5,6-tetrahydro-2H-[1,4′]bipyridinyl-3′-yl)-amide]
14 | < 1 µM | < 1 µM | < 1 µM |  |  |  | Cc1cc(-c2ccncc2NC(=O)c2nc(-c3ccccc3F)ccc2N)cc(N)n1 [Example 624, 3-amino-N-(2′-amino-6′-methyl-4,4′-bipyridin-3-yl)-6-(2-fluorophenyl)pyridine-2-carboxamide]
15 | < 1 µM | < 1 µM | < 1 µM |  |  |  | Nc1ccc(-c2ccccc2F)nc1C(=O)Nc1cnccc1N1CCCCC1 [Example 589, 3-amino-6-(2-fluoro-phenyl)-pyridine-2-carboxylic acid (3,4,5,6-tetrahydro-2H-[1,4′]bipyridinyl-3′-yl)-amide]
16 | < 1 µM | < 1 µM | < 1 µM |  |  |  | CCc1ccnc(-c2ccc(N)c(C(=O)Nc3cnccc3N3CCC[C@H](N)C3)n2)c1 [Example 717, 5-Amino-4′-ethyl-[2,2′]bi-pyridinyl-6-carboxylic acid (3-amino-3,4,5,6-tetrahydro-2H-[1,4′]bipyridinyl-3′-yl)-amide]
17 | < 1 µM | < 1 µM | < 1 µM |  |  |  | Cc1cc(-c2ccncc2NC(=O)c2nc(-c3cc(C(=O)N(C)C)ccc3F)ccc2N)nc(N)n1 [Example 564, 3-Amino-6-(5-dimethylcarbamoyl-2-fluoro-phenyl)-pyridine-2-carboxylic acid [4-(2-amino-6-methyl-pyrimidin-4-yl)-pyridin-3-yl]-amide]
18 | < 1 µM | < 1 µM | < 1 µM |  |  |  | Cc1cc(-c2ccncc2NC(=O)c2nc(-c3cc(C(=O)NC(C)C)ccc3F)ccc2N)cc(N)n1 [Example 539, 3-Amino-6-(2-fluoro-5-isopropylcarbamoyl-phenyl)-pyridine-2-carboxylic acid (2′-amino-6′-methyl-[4,4′]bi-pyridinyl-3-yl)-amide]
19 | < 1 µM | < 1 µM | < 1 µM |  |  |  | Nc1ccc(C2CC3CCC2C3)nc1C(=O)Nc1cnccc1N1CCC[C@H](N)C1 (stereo in doubt) [Example 646, 3-Amino-6-bicyclo[2.2.1]hept-2-yl-pyridine-2-carboxylic acid (3-amino-3,4,5,6-tetrahydro-2H-[1,4′]bipyridinyl-3′-yl)-amide]
20 | < 1 µM | < 1 µM | < 1 µM |  |  |  | N#Cc1cc(-c2ccncc2NC(=O)c2nc(-c3c(F)cccc3F)ccc2N)ccn1 [Example 618, 3-amino-N-(2′-cyano-4,4′-bipyridin-3-yl)-6-(2,6-difluorophenyl)pyridine-2-carboxamide]
